According to PubChem BioAssay AID248 (DTP/NCI, 2004):
Inconclusive results and toxic doses are left out. No stated cut-off is given here; in the data, active means T/C of 150% or more; inactive means T/C below 125%.

Test system: L1210 leukemia ip in BDF1 mice, survival T/C
Test: NCI In Vivo Anticancer Drug Screen. Data for tumor model L1210 Leukemia (intraperitoneal) in B6D2F1 (BDF1) mice
Settings: endpoint: mean survival time, higher = longer survival
Method in brief: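 Value reflects the ratio of survival in compound-treated mice to survival in vehicle-treated controls, with both groups carrying the same transplanted tumor.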

[1] = dose: 100.0 mg/kg/injection, schedule: Q01DX009 (ip), vehicle: Klucel (hydroxypropylcellulose) (HPC)
[2] = dose: 200.0 mg/kg/injection, schedule: Q01DX009 (ip), vehicle: Klucel (hydroxypropylcellulose) (HPC)
[3] = dose: 400.0 mg/kg/injection, schedule: Q01DX009 (ip), vehicle: Klucel (hydroxypropylcellulose) (HPC)

Measured: T/C

Cc1cc2c([N+](=O)[O-])c3ccc(Cl)nn3c2n[n+]1[O-]
inactive: dose: 62.5 mg/kg/injection, schedule: Q04DX002 (ip), vehicle: Klucel (hydroxypropylcellulose) (HPC) 106 % of control | dose: 125.0 mg/kg/injection, schedule: Q04DX002 (ip), vehicle: Klucel (hydroxypropylcellulose) (HPC) 114 % of control | dose: 250.0 mg/kg/injection, schedule: Q04DX002 (ip), vehicle: Klucel (hydroxypropylcellulose) (HPC) 95 % of control

NC(=O)CSc1cc(Cl)ccc1Cl
inactive: dose: 100.0 mg/kg/injection, schedule: Q01DX001 (ip), vehicle: other 96 % of control | dose: 200.0 mg/kg/injection, schedule: Q01DX001 (ip), vehicle: other 107 % of control | dose: 400.0 mg/kg/injection, schedule: Q01DX001 (ip), vehicle: other 113 % of control

COc1ccc(OC(=O)Nc2ccc(OC)cc2Cl)cc1
inactive: dose: 100.0 mg/kg/injection, schedule: Q04DX002 (ip), vehicle: Klucel (hydroxypropylcellulose) (HPC) 96 % of control | dose: 200.0 mg/kg/injection, schedule: Q04DX002 (ip), vehicle: Klucel (hydroxypropylcellulose) (HPC) 107 % of control | dose: 400.0 mg/kg/injection, schedule: Q04DX002 (ip), vehicle: Klucel (hydroxypropylcellulose) (HPC) 100 % of control

CCCCC(CC)(CC)OC(=O)c1ccc([N+](=O)[O-])cc1
inactive: dose: 100.0 mg/kg/injection, schedule: Q04DX002 (ip), vehicle: saline with Tween-80 87 % of control | dose: 200.0 mg/kg/injection, schedule: Q04DX002 (ip), vehicle: saline with Tween-80 106 % of control | dose: 400.0 mg/kg/injection, schedule: Q04DX002 (ip), vehicle: saline with Tween-80 98 % of control

O=C(CN(CCO)CCO)c1ccc([N+](=O)[O-])cc1
inactive: dose: 75.0 mg/kg/injection, schedule: Q01DX001 (ip), vehicle: saline 101 % of control

O=C(Nc1cccc(C2=NCCN2)c1)c1cc(Cl)cc(C(=O)Nc2cccc(C3=NCCN3)c2)c1
inactive: dose: 7.0 mg/kg/injection, schedule: Q01DX Z (ip), vehicle: methylcellulose (MC) 92 % of control | dose: 11.0 mg/kg/injection, schedule: Q01DX Z (ip), vehicle: methylcellulose (MC) 100 % of control | dose: 16.0 mg/kg/injection, schedule: Q01DX Z (ip), vehicle: methylcellulose (MC) 87 % of control | dose: 25.0 mg/kg/injection, schedule: Q01DX Z (ip), vehicle: methylcellulose (MC) 97 % of control

O=C(CCl)Nc1ccc(C(=O)O)cc1
inactive: dose: 3.0 mg/kg/injection, schedule: Q01DX Z (ip), vehicle: carboxymethylcellulose (CMC) 96 % of control | dose: 7.0 mg/kg/injection, schedule: Q01DX Z (ip), vehicle: carboxymethylcellulose (CMC) 102 % of control | dose: 15.0 mg/kg/injection, schedule: Q01DX Z (ip), vehicle: carboxymethylcellulose (CMC) 88 % of control | dose: 30.0 mg/kg/injection, schedule: Q01DX Z (ip), vehicle: carboxymethylcellulose (CMC) 104 % of control

Cc1[nH]c(N)nc(=S)c1CCCN(C(=O)c1ccccc1)c1ccccc1
inactive: dose: 37.5 mg/kg/injection, schedule: Q01DX001 (ip), vehicle: Klucel (hydroxypropylcellulose) (HPC) 90 % of control | dose: 150.0 mg/kg/injection, schedule: Q01DX001 (ip), vehicle: Klucel (hydroxypropylcellulose) (HPC) 90 % of control

Cc1ccc(NS(=O)(=O)c2ccc3ccccc3c2)c(C)c1
inactive: dose: 100.0 mg/kg/injection, schedule: Q01DX009 (ip), vehicle: saline with Tween-80 106 % of control | dose: 100.0 mg/kg/injection, schedule: Q04DX003 (ip), vehicle: saline with Tween-80 89 % of control | dose: 200.0 mg/kg/injection, schedule: Q01DX009 (ip), vehicle: saline with Tween-80 112 % of control | dose: 200.0 mg/kg/injection, schedule: Q04DX003 (ip), vehicle: saline with Tween-80 102 % of control | dose: 400.0 mg/kg/injection, schedule: Q01DX009 (ip), vehicle: saline with Tween-80 107 % of control | dose: 400.0 mg/kg/injection, schedule: Q04DX003 (ip), vehicle: saline with Tween-80 89 % of control

CCCCNC(C)(C)C(SS)c1ccc(C(F)(F)F)cc1 (configuration not stated)
inactive: dose: 25.0 mg/kg/injection, schedule: Q01DX009 (ip), vehicle: other 96 % of control | dose: 25.0 mg/kg/injection, schedule: Q04DX003 (ip), vehicle: other 98 % of control | dose: 50.0 mg/kg/injection, schedule: Q01DX009 (ip), vehicle: other 94 % of control | dose: 50.0 mg/kg/injection, schedule: Q04DX003 (ip), vehicle: other 93 % of control | dose: 100.0 mg/kg/injection, schedule: Q01DX009 (ip), vehicle: other 98 % of control | dose: 100.0 mg/kg/injection, schedule: Q04DX003 (ip), vehicle: other 86 % of control

N/N=C(\c1ccccc1)c1ccncc1
inactive: dose: 44.0 mg/kg/injection, schedule: Q01DX Z (ip), vehicle: methylcellulose (MC) 106 % of control | dose: 66.0 mg/kg/injection, schedule: Q01DX Z (ip), vehicle: methylcellulose (MC) 90 % of control | dose: 100.0 mg/kg/injection, schedule: Q01DX Z (ip), vehicle: methylcellulose (MC) 87 % of control

CN=C(NC)N(C)/N=C/C(C)=N/N(C)C(=NC)NC
inactive: dose: 15.0 mg/kg/injection, schedule: Q01DX Z (ip), vehicle: methylcellulose (MC) 95 % of control | dose: 30.0 mg/kg/injection, schedule: Q01DX Z (ip), vehicle: methylcellulose (MC) 101 % of control | dose: 60.0 mg/kg/injection, schedule: Q01DX Z (ip), vehicle: methylcellulose (MC) 101 % of control | dose: 60.0 mg/kg/injection, schedule: Q01DX Z (oral), vehicle: methylcellulose (MC) 104 % of control | dose: 120.0 mg/kg/injection, schedule: Q01DX Z (oral), vehicle: methylcellulose (MC) 93 % of control | dose: 240.0 mg/kg/injection, schedule: Q01DX Z (oral), vehicle: methylcellulose (MC) 91 % of control | dose: 480.0 mg/kg/injection, schedule: Q01DX Z (oral), vehicle: methylcellulose (MC) 110 % of control | dose: 720.0 mg/kg/injection, schedule: Q01DX Z (oral), vehicle: methylcellulose (MC) 108 % of control

N#Cc1nc2ccccc2nc1C#N
inactive: dose: 12.5 mg/kg/injection, schedule: Q01DX009 (ip), vehicle: Klucel (hydroxypropylcellulose) (HPC) 102 % of control | dose: 12.5 mg/kg/injection, schedule: Q04DX003 (ip), vehicle: Klucel (hydroxypropylcellulose) (HPC) 97 % of control | dose: 25.0 mg/kg/injection, schedule: Q01DX009 (ip), vehicle: Klucel (hydroxypropylcellulose) (HPC) 102 % of control | dose: 25.0 mg/kg/injection, schedule: Q04DX003 (ip), vehicle: Klucel (hydroxypropylcellulose) (HPC) 88 % of control

O=C(CC(=O)OCc1ccc([N+](=O)[O-])cc1)OCc1ccc([N+](=O)[O-])cc1
inactive: dose: 25.0 mg/kg/injection, schedule: Q01DX001 (ip), vehicle: Klucel (hydroxypropylcellulose) (HPC) 104 % of control | dose: 50.0 mg/kg/injection, schedule: Q01DX001 (ip), vehicle: Klucel (hydroxypropylcellulose) (HPC) 95 % of control | dose: 100.0 mg/kg/injection, schedule: Q01DX001 (ip), vehicle: Klucel (hydroxypropylcellulose) (HPC) 92 % of control

CCCCNC(=S)C(CC)CCCC (configuration not stated)
inactive: dose: 100.0 mg/kg/injection, schedule: Q04DX002 (sc), vehicle: olive oil, sesame oil, peanut oil 99 % of control | dose: 200.0 mg/kg/injection, schedule: Q04DX002 (sc), vehicle: olive oil, sesame oil, peanut oil 99 % of control | dose: 400.0 mg/kg/injection, schedule: Q04DX002 (sc), vehicle: olive oil, sesame oil, peanut oil 99 % of control

O=C(CC(C[N+](=O)[O-])c1ccccc1)c1ccc(Cl)cc1 (configuration not stated)
inactive: [1] 96 % of control | [2] 90 % of control | [3] 92 % of control

OC(C/C(Cc1ccccc1)=N/Nc1ccccc1)(C(F)(F)F)C(F)(F)F
inactive: [1] 94 % of control | dose: 100.0 mg/kg/injection, schedule: Q04DX003 (ip), vehicle: Klucel (hydroxypropylcellulose) (HPC) 96 % of control | [2] 96 % of control | dose: 200.0 mg/kg/injection, schedule: Q04DX003 (ip), vehicle: Klucel (hydroxypropylcellulose) (HPC) 88 % of control | [3] 100 % of control | dose: 400.0 mg/kg/injection, schedule: Q04DX003 (ip), vehicle: Klucel (hydroxypropylcellulose) (HPC) 107 % of control

COc1ccc(C(=O)N/N=C/c2ccco2)cc1
inactive: [1] 100 % of control | [2] 86 % of control
